Experimental findings from ChEMBL document CHEMBL1821716, “Pyrazolopyridine inhibitors of B-RafV600E. Part 2: structure-activity relationships” (Bioorg Med Chem Lett, 2011) are described below.

A short description of test [1]: Inhibition of basal ERK phosphorylation in human MALME-3M cells. Format: cell-based.
Test [2] has as its target Serine/threonine-protein kinase B-raf (Homo sapiens, UniProt P15056, V600E). Put plainly: Inhibition of full length B-Raf V600E mutant.

Sequence of Serine/threonine-protein kinase B-raf (P15056 2-766 V600E limits assumed): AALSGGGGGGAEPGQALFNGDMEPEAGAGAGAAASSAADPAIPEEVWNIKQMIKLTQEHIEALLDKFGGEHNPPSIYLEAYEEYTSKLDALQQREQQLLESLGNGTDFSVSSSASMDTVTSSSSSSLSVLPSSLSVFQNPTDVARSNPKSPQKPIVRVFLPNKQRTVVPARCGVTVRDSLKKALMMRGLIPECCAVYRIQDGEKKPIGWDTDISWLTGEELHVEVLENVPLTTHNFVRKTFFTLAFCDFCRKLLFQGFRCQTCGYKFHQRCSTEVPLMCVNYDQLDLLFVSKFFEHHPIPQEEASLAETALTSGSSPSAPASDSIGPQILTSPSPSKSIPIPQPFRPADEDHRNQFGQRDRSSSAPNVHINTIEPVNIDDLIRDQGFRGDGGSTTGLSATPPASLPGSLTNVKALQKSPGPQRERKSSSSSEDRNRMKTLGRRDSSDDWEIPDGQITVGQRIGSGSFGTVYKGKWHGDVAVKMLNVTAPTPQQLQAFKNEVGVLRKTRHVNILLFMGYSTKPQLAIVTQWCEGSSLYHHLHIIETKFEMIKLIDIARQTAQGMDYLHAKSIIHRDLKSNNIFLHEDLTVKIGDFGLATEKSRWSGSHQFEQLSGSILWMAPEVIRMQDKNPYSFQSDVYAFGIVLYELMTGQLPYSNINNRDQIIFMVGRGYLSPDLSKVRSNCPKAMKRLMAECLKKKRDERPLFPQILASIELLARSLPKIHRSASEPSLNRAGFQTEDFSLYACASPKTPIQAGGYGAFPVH

Usually IC50 stands for the concentration that inhibits the measured activity by half. A higher IC50 goes with lower potency. Regarding `CCCS(=O)(=O)Nc1ccc(F)c(C(=O)Nc2cnc3[nH]nc(O[C@@H]4CCOC4)c3c2)c1F`, the IC50 in test [1] came out at 62 nM; in test [2], 6.9 nM.

As to `O=C(Nc1cnc2[nH]ccc2c1)c1c(F)ccc(NS(=O)(=O)CC(F)(F)F)c1F`, the IC50 was found to be 2600 nM in test [1] and 38 nM in test [2].

With `COc1n[nH]c2ncc(NC(=O)c3c(F)ccc(NS(=O)(=O)c4ccc(F)cc4)c3F)cc12`, the concentration for half-maximal inhibition (IC50) in test [1] is 340 nM; in test [2], 46 nM.

Regarding `CCCS(=O)(=O)Nc1ccc(F)c(C(=O)Nc2cnc3[nH]nc(OCC4COC4)c3c2)c1F`, the IC50 is 43 nM in test [1] and 4.2 nM in test [2].

As to `COc1n[nH]c2ncc(NC(=O)c3c(F)ccc(NS(=O)(=O)NC(C)C)c3F)cc12`, the IC50 is 630 nM in test [1] and 110 nM in test [2].

As for `CCCS(=O)(=O)Nc1ccc(F)c(C(=O)Nc2cnc3[nH]nc(CC)c3c2)c1F`, the half-maximal inhibitory concentration (IC50) in test [1] is 84 nM; in test [2], 9.2 nM.

In the case of `CCCS(=O)(=O)Nc1ccc(F)c(C(=O)Nc2cnc3[nH]nc(OC)c3c2)c1`, the 50% inhibitory concentration (IC50) in test [1] was 350 nM; in test [2], 150 nM.

With `COc1n[nH]c2ncc(NC(=O)c3c(F)ccc(NS(=O)(=O)CC(C)C)c3F)cc12`, the IC50 in test [1] turned out to be 11 nM; in test [2], 4.5 nM.

For `CCCS(=O)(=O)Nc1ccc(Cl)c(C(=O)Nc2cnc3[nH]nc(OC)c3c2)c1`, the IC50 was found to be 250 nM in test [1] and 61 nM in test [2].

For `COc1n[nH]c2ncc(NC(=O)c3c(F)ccc(NS(=O)(=O)c4cccs4)c3F)cc12`, the IC50 in test [1] was 30 nM; in test [2], 0.2 nM.

As to `CCN(C)S(=O)(=O)Nc1ccc(F)c(C(=O)Nc2cnc3[nH]ccc3c2)c1F`, the IC50 in test [1] was found to be 340 nM; in test [2], 400 nM.

As to `CCCS(=O)(=O)Nc1ccc(F)c(C(=O)Nc2cnc3[nH]cc(CC)c3c2)c1F`, the IC50 in test [1] is 290 nM; in test [2] it was 19 nM.

Take `COc1n[nH]c2ncc(NC(=O)c3c(F)ccc(NS(=O)(=O)c4cc(F)ccc4F)c3F)cc12`: the figures for the concentration for half-maximal inhibition (IC50) in test [1] and in test [2] were 20 nM and 1 nM, respectively.

With `CCCS(=O)(=O)Nc1ccc(F)c(C(=O)Nc2cnc3[nH]cc(C(F)(F)F)c3c2)c1F`, the IC50 in test [1] came to 230 nM; in test [2] it was 6.2 nM.

As for `COc1n[nH]c2ncc(NC(=O)c3c(F)ccc(NS(=O)(=O)c4ccco4)c3F)cc12`, the IC50 in test [1] came out at 66 nM; in test [2] it was 0.7 nM.

In the case of `CCCS(=O)(=O)Nc1ccc(F)c(C(=O)Nc2cnc3[nH]nc(OCC(F)(F)F)c3c2)c1F`, the half-maximal inhibitory concentration (IC50) in test [1] is 28 nM; in test [2] it was 5.3 nM.

For `COc1n[nH]c2ncc(NC(=O)c3c(F)ccc(NS(=O)(=O)c4ccccn4)c3F)cc12`, the 50% inhibitory concentration (IC50) in test [1] was found to be 280 nM; in test [2] it was 16 nM.

In the case of `CCCS(=O)(=O)Nc1ccc(F)c(C(=O)Nc2cnc3[nH]nc(I)c3c2)c1F`, the IC50 in test [1] is 36 nM; in test [2], 1.8 nM.

As to `COc1n[nH]c2ncc(NC(=O)c3c(F)ccc(NS(=O)(=O)c4cccnc4)c3F)cc12`, the values for the IC50 in test [1] and in test [2] were 83 nM and 0.5 nM, respectively.

As to `O=C(Nc1cnc2[nH]ccc2c1)c1c(F)ccc(NS(=O)(=O)CC2CC2)c1F`, the IC50 amounted to 230 nM in test [1] and 29 nM in test [2].

On to `COc1n[nH]c2ncc(NC(=O)c3c(F)ccc(NS(=O)(=O)Cc4ccccc4)c3F)cc12`, for which the half-inhibitory concentration (IC50) in test [1] amounted to 830 nM; in test [2] it was 190 nM.

With `CCCCS(=O)(=O)Nc1ccc(F)c(C(=O)Nc2cnc3[nH]ccc3c2)c1F`, the IC50 worked out at 120 nM in test [1] and 40 nM in test [2].

On to `O=C(Nc1cnc2[nH]ccc2c1)c1c(F)ccc(NS(=O)(=O)CCC(F)(F)F)c1F`, for which the IC50 in test [1] is 270 nM; in test [2], 33 nM.

For `CCCS(=O)(=O)Nc1ccc(F)c(C(=O)Nc2cnc3[nH]nc(OC)c3c2)c1OC`, the concentration for half-maximal inhibition (IC50) in test [1] is 180 nM; in test [2] it was 110 nM.

On to `CCCS(=O)(=O)Nc1ccc(F)c(C(=O)Nc2cnc3[nH]cc(I)c3c2)c1F`, for which the IC50 is 60 nM in test [1] and 2.2 nM in test [2].
